Reference: publication PMC5146650, “Effect of arginine on oligomerization and stability of N-acetylglutamate synthase” (Scientific Reports, 2016)
“And” between values parts separate entries of the source, which are not always exact repeats. Equal entries are not always repeated.

Experiments:
[1] = biological target: bifunctional N-acetylglutamate synthase-kinase from Xanthomonas campestris (Xanthomonas campestris); experiment: AUC; sedimentation velocity, global fit of raw data with explicit Lamm equation solutions and reaction kinetics, tetramer-octamer model (octamer to tetramers); without L-arginine; 35, 26, 17, 12, 9, 4 and 2 uM monomer, 20 °C, 10 mM Tris, 50 mM KCl, 1 mM TCEP
[2] = biological target: bifunctional N-acetylglutamate synthase-kinase from Xanthomonas campestris (Xanthomonas campestris); experiment: AUC; sedimentation velocity, sw isotherm fitted to a tetramer-octamer association model (octamer to tetramers); with 1 mM L-arginine; 20 °C, 50,000 rpm, 10 mM Tris, 50 mM KCl, 1 mM TCEP, pH 8.0
[3] = biological target: bifunctional N-acetylglutamate synthase-kinase from Xanthomonas campestris (Xanthomonas campestris); experiment: AUC; sedimentation velocity, c(s) distributions and sw isotherm fitted to a tetramer-octamer association model (octamer to tetramers); without L-arginine; 2-40 uM monomer, 20 °C, 50,000 rpm, 10 mM Tris, 50 mM KCl, 1 mM TCEP, pH 8.0
MmNAGS-K = biological target: T1, MmNAGS-K (Maricaulis maris, UniProt Q0ASS9); experiment: Thermofluor thermal shift, SYPRO Orange; format: binding; settings: read-out: change in Tm at 10 mM
T1 construct: gene Mmar10_0365
T1 sequence (Q0ASS9 1-441): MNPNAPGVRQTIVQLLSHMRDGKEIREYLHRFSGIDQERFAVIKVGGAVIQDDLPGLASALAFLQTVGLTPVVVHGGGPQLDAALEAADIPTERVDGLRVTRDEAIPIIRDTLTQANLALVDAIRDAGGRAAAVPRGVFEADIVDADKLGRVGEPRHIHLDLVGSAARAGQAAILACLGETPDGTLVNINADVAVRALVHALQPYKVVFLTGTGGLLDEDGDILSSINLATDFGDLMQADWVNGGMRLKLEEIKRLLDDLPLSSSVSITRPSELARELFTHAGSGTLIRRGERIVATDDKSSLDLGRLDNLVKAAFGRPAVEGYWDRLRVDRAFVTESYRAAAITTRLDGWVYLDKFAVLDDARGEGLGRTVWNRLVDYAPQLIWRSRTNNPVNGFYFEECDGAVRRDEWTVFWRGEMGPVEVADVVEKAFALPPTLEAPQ

mNAGS-C [4] = biological target: T2, mNAGS-C (Mus musculus, UniProt Q8R4H7); experiment: NAGS activity assay after […] min preincubation at […]-45 °C; format: biochemical; settings: 1 mM L-arginine; assayed at 30 °C; allosteric activator; range covers mNAGS-M and mNAGS-C
T2 construct: gene Nags; conserved segment only, mitochondrial targeting signal and variable segment removed
T2 sequence (Q8R4H7 84-527 limits assumed): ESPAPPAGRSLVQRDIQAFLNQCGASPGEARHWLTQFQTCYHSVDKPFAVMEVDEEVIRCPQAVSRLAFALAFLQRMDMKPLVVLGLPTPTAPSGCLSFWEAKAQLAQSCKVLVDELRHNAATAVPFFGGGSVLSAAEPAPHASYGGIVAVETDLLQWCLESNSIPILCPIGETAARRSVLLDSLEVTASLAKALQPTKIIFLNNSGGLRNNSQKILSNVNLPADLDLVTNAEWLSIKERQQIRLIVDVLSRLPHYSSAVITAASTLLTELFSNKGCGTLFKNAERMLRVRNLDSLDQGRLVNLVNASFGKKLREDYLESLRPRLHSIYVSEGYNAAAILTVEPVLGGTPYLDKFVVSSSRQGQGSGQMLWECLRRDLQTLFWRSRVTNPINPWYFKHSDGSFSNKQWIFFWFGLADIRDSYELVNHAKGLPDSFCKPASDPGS

XcNAGS-K = biological target: T3, XcNAGS-K (Xanthomonas campestris, UniProt B0RS52); experiment: sedimentation velocity ultracentrifugation and Thermofluor; format: binding; settings: 1 mM L-arginine; 10 mM Tris, 50 mM KCl, 1 mM TCEP, pH 8.0, 20 °C (ultracentrifugation); allosteric
T3 construct: gene argB
T3 sequence (B0RS52 1-447): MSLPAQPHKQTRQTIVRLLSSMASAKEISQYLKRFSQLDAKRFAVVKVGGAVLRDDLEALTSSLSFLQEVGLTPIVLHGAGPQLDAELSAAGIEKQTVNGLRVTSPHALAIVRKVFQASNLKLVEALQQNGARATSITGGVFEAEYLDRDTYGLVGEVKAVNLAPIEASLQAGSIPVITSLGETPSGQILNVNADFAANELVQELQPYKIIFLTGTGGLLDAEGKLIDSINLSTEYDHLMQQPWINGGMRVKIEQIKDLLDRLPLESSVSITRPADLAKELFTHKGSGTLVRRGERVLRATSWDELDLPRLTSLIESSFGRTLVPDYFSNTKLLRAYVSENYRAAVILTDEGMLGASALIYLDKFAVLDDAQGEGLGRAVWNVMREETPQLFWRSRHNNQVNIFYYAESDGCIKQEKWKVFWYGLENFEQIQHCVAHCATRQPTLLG

mNAGS-M [5] = biological target: T4, mNAGS-M (Mus musculus, UniProt Q8R4H7); experiment: Thermofluor thermal shift, SYPRO Orange; format: binding; settings: read-out: change in Tm at 10 mM
T4 construct: gene Nags; mature form, mitochondrial targeting signal removed, variable segment kept
T4 sequence (Q8R4H7 51-527): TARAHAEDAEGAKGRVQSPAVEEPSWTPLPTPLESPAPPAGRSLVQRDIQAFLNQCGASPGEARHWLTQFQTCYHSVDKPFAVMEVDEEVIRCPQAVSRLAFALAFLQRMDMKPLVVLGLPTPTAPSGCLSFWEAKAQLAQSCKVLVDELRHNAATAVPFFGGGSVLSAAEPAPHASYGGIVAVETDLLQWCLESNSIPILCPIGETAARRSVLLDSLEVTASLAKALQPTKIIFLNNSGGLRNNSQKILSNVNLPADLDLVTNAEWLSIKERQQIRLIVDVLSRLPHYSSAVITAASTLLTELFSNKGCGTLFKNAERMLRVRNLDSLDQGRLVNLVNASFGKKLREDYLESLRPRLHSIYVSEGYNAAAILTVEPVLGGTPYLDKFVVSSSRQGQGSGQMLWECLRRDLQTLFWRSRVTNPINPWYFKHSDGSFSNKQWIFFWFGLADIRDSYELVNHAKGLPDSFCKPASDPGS

mNAGS-M [6] = biological target: T4, mNAGS-M; experiment: NAGS activity assay after […] min preincubation at […]-45 °C; format: biochemical; settings: 1 mM L-arginine; assayed at 30 °C; allosteric activator; range covers mNAGS-M and mNAGS-C
NgNAGS = biological target: T5, NgNAGS (Neisseria gonorrhoeae, UniProt Q5FAK7); experiment: Thermofluor thermal shift, SYPRO Orange; format: binding; settings: read-out: change in Tm at 1 mM
T5 construct: gene argA; hexamer
T5 sequence (Q5FAK7 1-436): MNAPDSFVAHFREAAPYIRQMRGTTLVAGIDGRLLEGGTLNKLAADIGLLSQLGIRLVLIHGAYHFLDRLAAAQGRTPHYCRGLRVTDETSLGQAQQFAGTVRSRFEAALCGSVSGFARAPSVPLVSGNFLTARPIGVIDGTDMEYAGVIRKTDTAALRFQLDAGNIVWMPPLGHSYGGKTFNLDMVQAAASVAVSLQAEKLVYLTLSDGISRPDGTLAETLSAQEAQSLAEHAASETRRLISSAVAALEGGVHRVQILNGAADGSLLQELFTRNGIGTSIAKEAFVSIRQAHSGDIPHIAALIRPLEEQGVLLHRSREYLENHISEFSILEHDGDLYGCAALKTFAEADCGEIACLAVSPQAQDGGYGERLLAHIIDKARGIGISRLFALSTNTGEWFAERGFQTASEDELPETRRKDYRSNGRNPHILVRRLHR

mNAGS-C [7] = biological target: T2, mNAGS-C; experiment: Thermofluor thermal shift, SYPRO Orange; format: binding; settings: read-out: change in Tm at 10 mM

Compound | Kd [1] [nM] | half-life for the octamer [1] [min] | log10koff [1] | Kd [2] [nM] | Kd [3] [nM] | stoichiometry N [3] | ΔTm at 10000 µM (MmNAGS-K) [°C] | fold increase of specific activity at 1 mM (mNAGS-C [4]) | sedimentation velocity ultracentrifugation and Thermofluor (XcNAGS-K) | ΔTm at 10000 µM (mNAGS-M [5]) [°C] | fold increase of specific activity at 1 mM (mNAGS-M [6]) | ΔTm at 1000 µM (NgNAGS) [°C] | ΔTm at 10000 µM (mNAGS-C [7]) [°C]
bifunctional N-acetylglutamate synthase-kinase from Xanthomonas campestris (enzyme) | 2600 | 45 | -3.6 | 37000 | 2900 | 4 and 8 | – | – | – | – | – | – | –
N=C(N)NCCC[C@H](N)C(=O)O [L-arginine] | – | – | – | – | – | – | ~10 | 1.5- to 4 | equilibrium between XcNAGS-K tetramers and octamers depends on the presence and binding of L-arginine | ~5 | 1.5- to 4 | ~-2.5 | ~5
